Assay results published in article PMC10060354, “Discovery of a small molecule ligand of FRS2 that inhibits invasion and tumor growth” (Cellular Oncology, 2022).
Several values for one entry are separate records, joined by “and”; a condition that tells them apart may be missing. Equal entries are not always repeated. Where two headings read alike, the source gives them in different places.

Columns and labels:
[1] = Cell viability (cytotoxicity, MTT) using HepG2; type: cell-based, human; conditions: human, HepG2 cells, 72 h, summary sheet, read-out: MTT (AC50) Conc at which 50% of maximum efficacy is reached
Method in brief: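 Compounds were tested at 8 concentrations in triplicate on HepG2 cells plated 24 h beforehand, with 72 h exposure in 1% DMSO medium. MTT was loaded 1 h before the end, solubilized in DMSO and read at 570 nm. Minimum effective concentration is the lowest concentration exceeding the significance level, given dose-response or two consecutive points above it.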

[2] = test system: ERK (pT202/Y204); assay: Immunoblotting, ERK phosphorylation; type: cell-based, human; conditions: DAOY, SW780, M059K, SKOV3, AGS, DMS114 and RT-112 cells; 10 µM compound or 1 µM BGJ398
Method: (§1) Cells were serum starved o.n. and 10 µM compound or 1 µM (BGJ398) were added 3 h before stimulation with 100 ng/ml bFGF for 15 min. Cells were lysed in RIPA buffer containing protease inhibitor cocktail and lysates resolved by SDS-PAGE. Membranes were probed with primary antibodies against phospho-FRS2, FRS2, phospho-ERK1/2, ERK1/2, pAKT, AKT and tubulin. Integrated density of immuno-reactive bands was quantified using Adobe Photoshop CS3. Integrated densities of phospho bands relative to non-phospho bands of same protein were calculated and plotted as fold-change relative to untreated control conditions. Compounds and BGJ398 were added in DMSO and corresponding DMSO concentrations were used in control samples.

[3] = test system: FRS2 (Y436) phosphorylation; assay: Immunoblotting, FRS2 phosphorylation; type: cell-based, human; conditions: RT-112 cells
Method: as §1

[4] = In vivo bioavailability / PK after 1 mg/kg IV or 10 mg/kg PO; design: species or system Male ICR mice
Method: In vivo bioavailability studies were performed by Pharmacology Discovery Services Taiwan, Ltd., (New Taipei City, Taiwan). Male ICR mice weighing 20—30 g were provided by BioLasco Taiwan (under Charles River Laboratories Licensee). Animals were acclimated for 3 days prior to use and were confirmed with good health. All animals were maintained in a hygienic environment with controlled temperature (20—24 °C), humidity (30%—70%) and 12 h light/dark cycles. Free access to sterilized standard lab diet [MFG (Oriental Yeast Co., Ltd., Japan)] and autoclaved tap water. A pharmacokinetic (PK) study was performed in male ICR mice following intravenous (IV) and oral (PO) administration of compound 7 and E12 and IV administration of the test compound 3.14. The three test compounds (7, E12 and 3.14) were formulated in 1% dimethyl sulfoxide (DMSO)/10% Solutol® HS-15/ phosphate buffered saline (PBS) at 0.2 mg/mL and 1 mg/mL for IV and PO administration, respectively. The dosing volumes were 5 ml/kg for IV and 10 ml/kg for PO. The dose was 1 mg/kg for IV and 10 mg/kg for PO routes.

[5] = 10 mg/kg PO, time 0.167 h, mouse#1-3
[6] = 10 mg/kg PO, time 0.5 h, mouse#1-3
[7] = 10 mg/kg PO, time 1 h, mouse#1-3
[8] = 10 mg/kg PO, time 2 h, mouse#1-3
[9] = 10 mg/kg PO, time 4 h, mouse#1-3
[10] = 10 mg/kg PO, time 6 h, mouse#1-3
[11] = 10 mg/kg PO, time 8 h, mouse#1-3
[12] = 10 mg/kg PO, time 24 h, mouse#1-3
[13] = male, ICR, mouse, plasma, 1 mg/kg, IV
[14] = male, ICR, mouse, plasma, 10 mg/kg, PO
[15] = mg/kg IV, time 0.167 h, mouse#1-3
[16] = mg/kg IV, time 0.5 h, mouse#1-3

## COc1ncc(C(C)NC2CC(C)(C)NC(C)(C)C2)cc1Cl (stereo not drawn) [Compound 3.3]
[1]
  AC50 at 72 h: > 100 µM

## N#Cc1c(Cl)cc(O)c2c1C1C=CCC1C(c1ccc(Cl)cc1)N2 (stereo not drawn) [Compound 14]
[2]
  basal and bFGF-induced phosphorylation of ERK (result in words): inhibited basal and bFGF-induced phosphorylation
[1]
  AC50 at 72 h: 5.24 µM
[3]
  basal and bFGF-induced phosphorylation of FRS2Y436 (result in words): reduced basal and bFGF-induced phosphorylation

## Cc1[nH]nc(-c2ccc(O)c(C)c2O)c1-c1nc2ccccc2s1 [Compound E12]
[1]
  AC50 at 72 h: 23.7 µM
[4]; 1 mg/kg, IV
  AUC Extr (%): 0.5%
[4]; [5]
  in vivo PK raw, level per mouse: 13 and 10 and 15
  in vivo PK raw, level per mouse (µM): 0.02964 µM and 0.04446 µM
[4]; [6]
  in vivo PK raw, level per mouse: 16 and 11 and 3
  in vivo PK raw, level per mouse (µM): 0.04742 µM and 0.0326 µM and 0.008892 µM
[4]; [7]
  in vivo PK raw, level per mouse: 1 and 2 and 10
  in vivo PK raw, level per mouse (µM): 0.002964 µM and 0.005928 µM and 0.02964 µM
[4]; [8]
  in vivo PK raw, level per mouse: 3 and 0 and 2
  in vivo PK raw, level per mouse (µM): 0.008892 µM and 0 µM and 0.005928 µM
[4]; [9]
  in vivo PK raw, level per mouse: 5 and 2 (2×)
  in vivo PK raw, level per mouse (µM): 0.01482 µM and 0.005928 µM (2×)
[4]; [10]
  in vivo PK raw, level per mouse: 0 (2×) and 2
  in vivo PK raw, level per mouse (µM): 0 µM (2×) and 0.005928 µM
[4]; [11]
  in vivo PK raw, level per mouse: 1
  in vivo PK raw, level per mouse (µM): 0.002964 µM
[4]; [12]
  in vivo PK raw, level per mouse: 0
  in vivo PK raw, level per mouse (µM): 0 µM
[4]; 10 mg/kg, PO
  AUC Extr (%): 14.8%
  AUC/D: 3 kg·ng·h/mL/mg
  AUClast (H*ng/ml): 22 H*ng/ml
[4]; male, ICR, mouse, plasma, iv, 1 mg/kg, IV, read-out: AUClast
  AUC(0-t): 85 ng·h/mL
[4]; male, ICR, mouse, plasma, iv, 1 mg/kg, mg/kg IV, time 0.167 h, mouse#1-3, read-out: in vivo PK raw, level per mouse
  concentration at 0.167 h: 1360 nM
[4]; male, ICR, mouse, plasma, iv, 1 mg/kg, mg/kg IV, time 0.5 h, mouse#1-3, read-out: in vivo PK raw, level per mouse
  concentration at 0.5 h: 305 nM
[4]; male, ICR, mouse, plasma, iv, 1 mg/kg, mg/kg IV, time 1 h, mouse#1-3, read-out: in vivo PK raw, level per mouse
  concentration at 1 h: 29.6 nM
[4]; male, ICR, mouse, plasma, iv, 1 mg/kg, mg/kg IV, time 2 h, mouse#1-3, read-out: in vivo PK raw, level per mouse
  concentration at 2 h: 5.93 nM
[4]; male, ICR, mouse, plasma, iv, 1 mg/kg, mg/kg IV, time 4 h, mouse#1-3, read-out: in vivo PK raw, level per mouse
  concentration at 4 h: 0 nM
[4]; male, ICR, mouse, plasma, iv, 1 mg/kg, mg/kg IV, time 6 h, mouse#1-3, read-out: in vivo PK raw, level per mouse
  concentration at 6 h: 0 nM
[4]; male, ICR, mouse, plasma, iv, 1 mg/kg, mg/kg IV, time 8 h, mouse#1-3, read-out: in vivo PK raw, level per mouse
  concentration at 8 h: 0 nM
[4]; male, ICR, mouse, plasma, iv, 1 mg/kg, mg/kg IV, time 24 h, mouse#1-3, read-out: in vivo PK raw, level per mouse
  concentration at 24 h: 0 nM
[4]; male, ICR, mouse, plasma, iv, 1 mg/kg, mice, 1 mg/kg IV, read-out: AUClast after IV administration
  AUC(0-t): 85 ng·h/mL
[4]; male, ICR, mouse, plasma, oral, 10 mg/kg, 10 mg/kg PO, time 0.167 h, mouse#1-3, read-out: in vivo PK raw, level per mouse
  concentration at 0.167 h: 38.5 nM
[4]; male, ICR, mouse, plasma, oral, 10 mg/kg, 10 mg/kg PO, time 8 h, mouse#1-3, read-out: in vivo PK raw, level per mouse
  concentration at 8 h: 2.96 nM
[4]; male, ICR, mouse, plasma, oral, 10 mg/kg, 10 mg/kg PO, time 24 h, mouse#1-3, read-out: in vivo PK raw, level per mouse
  concentration at 24 h: 0 nM
[4]; male, ICR, mouse, plasma, po, 10 mg/kg, mice, 10 mg/kg PO, read-out: AUClast after PO administration
  AUC(0-t): 22 ng·h/mL
[4]; [13]
  AUC(0-inf): 86 ng·h/mL
  MRT: 6.6 min
  clearance: 195 mL/min/kg
  half-life: 9 min
[4]; male, ICR, mouse, plasma, 1 mg/kg, IV, read-out: Vss
  Vd: 1.3 L/kg
[4]; [14]
  AUC(0-inf): 26 ng·h/mL
  MRT: 233 min
  Tmax: 10.2 min
  bioavailability: 3%
  half-life: 163 min
[4]; male, ICR, mouse, mice, 1 mg/kg IV, plasma, read-out: C0 after IV administration
  C0: 762 ng/mL
[4]; male, ICR, mouse, mice, 10 mg/kg PO, plasma, read-out: Cmax (oral bioavailability) after PO administration
  Cmax: 13 ng/mL
[4]; [15]
  in vivo PK raw, level per mouse: 459 and 369 and 455
  in vivo PK raw, level per mouse (µM): 1.094 µM and 1.349 µM
[4]; [16]
  in vivo PK raw, level per mouse: 103 and 104 and 127
  in vivo PK raw, level per mouse (µM): 0.3082 µM and 0.3764 µM
[4]; mg/kg IV, time 1 h, mouse#1-3
  in vivo PK raw, level per mouse: 10 and 13 and 14
  in vivo PK raw, level per mouse (µM): 0.03853 µM and 0.04149 µM
[4]; mg/kg IV, time 2 h, mouse#1-3
  in vivo PK raw, level per mouse: 2
  in vivo PK raw, level per mouse (µM): 0.005928 µM
[4]; mg/kg IV, time 4 h, mouse#1-3
  in vivo PK raw, level per mouse: 0
  in vivo PK raw, level per mouse (µM): 0 µM
[4]; mg/kg IV, time 6 h, mouse#1-3
  in vivo PK raw, level per mouse: 0
  in vivo PK raw, level per mouse (µM): 0 µM
[4]; mg/kg IV, time 8 h, mouse#1-3
  in vivo PK raw, level per mouse: 0
  in vivo PK raw, level per mouse (µM): 0 µM
[4]; mg/kg IV, time 24 h, mouse#1-3
  in vivo PK raw, level per mouse: 0
  in vivo PK raw, level per mouse (µM): 0 µM
[4]; mice, 1 mg/kg IV
  CL1/2 after IV administration: 0.15 h
[4]; mice, 10 mg/kg PO
  CL1/2 after PO administration: 2.71 h
